Experimental data published in US20260000645A1, “USE OF EBSELEN OR ONE OF THE DERIVATIVES THEREOF TO TREAT MITOCHONDRIAL PATHOLOGIES OR DYSFUNCTIONS” (ASSOCIATION FRANCAISE CONTRE LES MYOPATHIES, priority 2022, published 2026).

Test system: fibroblasts of TAZ patients
Assay: Respiratory growth/proliferation of fibroblasts of TAZ patients (SRB, low glucose)
Format: cell-based, human
Experimental: EBS was tested for the effect thereof on the respiratory growth of fibroblasts of TAZ patients, as opposed to fibroblasts from eight different patients, carriers of mutations in the TAZ gene (suffering from Barth's syndrome).
The rate of proliferation was measured in a medium with a weak concentration of glucose (1 g/L; to force cells to use the OXPHOS system rather than glycolyse) in 384 well micro-titration plates (1200 cells/wells at T0) using the Sulforhodamine B (SRB) staining protocol at 24, 48, 72 or 96 hours after placing the cells with or without 12.15 nM of EBS.
The data are the average of 8 patients or 3 controls in triplicate, in 4 independent experiments.
The rate of proliferation was then measured under the same experimental conditions but with variable concentrations of ethaselen: The cells were analyzed 96 hours after treatment with increasing doses of ethaselen (from 150 pM to 26.1 μM). The bars represent the average of 4 replicates coming from 2 patients in 3 independent experiments.

[1] = 96 hours, vs negative control DMSO

`O=c1c2ccccc2[se]n1-c1ccccc1` [ebselen, 2-phenyl-1,2-benzisoselenazol-3(2H)-one] was tested, and the toxicity concentration (96 hours, fibroblasts of TAZ patients) was greater than 234.9 µM, the “concentration range improving respiratory growth/proliferation, lower limit” value [1] was no less than 1.35 nM and the “concentration range improving respiratory growth/proliferation, upper limit” value [1] was no more than 8.7 µM. The “respiratory growth of fibroblasts of TAZ patients” value (EBS 12.15 nM, glucose 1 g/L, 24, 48, 72, 96 hours) was “improves” and the “time after which EBS is effective” value (EBS 12.15 nM, more pronounced at 48, 72 and 96 hours) was 24 h.
